Assay results from publication PMC4112042, “Phase 1 dose-escalation study of the PARP inhibitor CEP-9722 as monotherapy or in combination with temozolomide in patients with solid tumors” (Cancer Chemotherapy and Pharmacology, 2014).

Columns and labels:
[1] = system: breast and ovarian cancer patients with BRCA mutations; set-up: method as in PMID 20609467, PMID 20609468; conditions: monotherapy; cited from earlier work
[2] = system: patients with metastatic melanoma; conditions: phase 2, metastatic melanoma, combination with temozolomide; cited from earlier work
[3] = system: patients with advanced solid tumors; assay: Phase 1 dose-escalation: safety, DLT and MTD
Experimental: The study consisted of a screening period to determine patient eligibility, a 14-day cycle in which CEP-9722 was administered once daily as monotherapy, and subsequent 28-day cycles in which CEP-9722 and temozolomide were administered as combination therapy. In cycle 1, the first patient in each dosing cohort received CEP-9722 on days 1, 3, 4, and 5, while other patients in each cohort received CEP-9722 on days 1–5. In cycle 2, patients received CEP-9722 and temozolomide on days 1–5 (Supplemental Fig.). CEP-9722 was escalated from a starting dose of 150 mg/day up to 1,000 mg/day, and temozolomide was given at the dose of 150 mg/m^2/day at all dose levels of CEP-9722. Both CEP-9722 and temozolomide were administered in the fasted state.
Patients were enrolled in cohorts of 3. Enrollment in the next cohort commenced when the third patient in the current cohort had completed day 28 of cycle 2 without a dose-limiting toxicity (DLT).
Safety was assessed using adverse event data, clinical laboratory test results, vital signs measurement, ECG findings, physical examination findings, ECOG performance status, and concomitant medication usage.

advanced solid tumors = assay: Best tumor response according to RECIST 1.0; assay type: in vivo, human
Experimental: Tumor assessment was performed within 4 weeks before the first dose of study drug and within the fourth week of cycle 2 using computed tomography or magnetic resonance imaging with contrast. In patients who continued treatment, tumor assessment was performed every 2 cycles and at the end of treatment visit, at the discretion of the investigator.

[4] = Plasma pharmacokinetics of CEP-8983 after oral CEP-9722; assay type: in vivo, human; conditions: patients
Experimental: Pharmacokinetic serum samples were collected on day 1 of cycle 1 pre-dose and 0.5, 1, 2, 3, 4, 6, 8, 10, and 24 h post-dose; and on day 5 of cycle 1 and cycle 2 pre-dose, and 0.5, 1, 2, 3, 4, 6, 8, 10, 24, and 48 h post-dose. Urine samples were obtained on day 1 of cycle 1 during 4 intervals in the 24 h following study drug administration. Pharmacokinetic parameters (area under the plasma drug concentration–time curve from time 0 to infinity [AUC0–∞], AUC from time 0 to the time of the last measurable drug concentration [AUC0–t], AUC for 1 dosing interval [AUCτ] following multiple doses, maximum observed plasma concentration [C max], and time to maximum observed plasma concentration [T max]) were summarized at each visit (day 1 of cycle 1 and day 5 of cycles 1 and 2) using descriptive statistics.

[5] = system: PARP in peripheral blood mononuclear cells (PBMCs); assay: PAR ELISA in PBMCs (PARP inhibition, pharmacodynamics); assay type: in vivo, human
Experimental: Pharmacodynamics were assessed by the measurement of PAR concentrations in PBMCs. PBMCs were isolated at site, and the frozen cell pellet was sent to a central laboratory (Trevigen Inc., Gaithersburg, MD, USA) for processing and analysis by PAR enzyme-linked immunosorbent assay (ELISA). Pharmacodynamic samples were collected on 2 consecutive days at screening visits and on days 1, 5 (pre-dose and 2 h [cycle 1 only], 6 h, and 24 h post-dose), and 8 (at the time of hematology laboratory testing). The PAR concentrations in the 2 screening samples and the day 1 pre-dose sample were averaged to provide a baseline value, and the percentage inhibition from baseline was calculated in the post-dose samples.

[6] = cycle 1, single-agent CEP-9722, total, all dose levels (N=26)
[7] = cycles ≥2, CEP-9722 combined with temozolomide, 150 mg/day (N=3)
[8] = cycles ≥2, CEP-9722 combined with temozolomide, 300 mg/day (N=6)
[9] = cycles ≥2, CEP-9722 combined with temozolomide, 500 mg/day (N=3)
[10] = cycles ≥2, CEP-9722 combined with temozolomide, 750 mg/day (N=11)
[11] = cycles ≥2, CEP-9722 combined with temozolomide, 1,000 mg/day (N=3)
[12] = cohort 1, 150 mg/day, 2 evaluated
[13] = cohort 2, 300 mg/day, 6 evaluated
[14] = cohort 3, 500 mg/day, 3 evaluated
[15] = cohort 4, 750 mg/day, 9 evaluated
[16] = cohort 5, 1,000 mg/day, 2 evaluated

In the case of `O=C(c1cc(Cc2n[nH]c(=O)c3ccccc23)ccc1F)N1CCN(C(=O)C2CC2)CC1` [olaparib], the RECIST responses [1] is listed as 30–40%.

For `CNCc1ccc(-c2[nH]c3cc(F)cc4c3c2CCNC4=O)cc1` [rucaparib], the “patients requiring a reduction in the dose of temozolomide due to enhanced myelosuppression” value [2] is listed as “approximately half”.

For `COc1cccc2[nH]c3c4c(c5c(c3c12)C(=O)N(CN1CCN(C)CC1)C5=O)CCC4` [CEP-9722], the “Anorexia (treatment-related adverse event, all grades)” value [3, 6] was 3 (12) N patients (%), the “Asthenia (treatment-related adverse event, all grades)” value [3, 6] was 5 (19) N patients (%) and the “Blood creatinine phosphokinase increased (treatment-related adverse event, all grades)” value [3, 6] was 2 (8) N patients (%). For the same compound, the “Constipation (treatment-related adverse event, all grades)” value [3, 6] was 2 (8) N patients (%), the “Diarrhea (treatment-related adverse event, all grades)” value [3, 6] was 7 (27) N patients (%) and the “Fatigue (treatment-related adverse event, all grades)” value [3, 6] was 4 (15) N patients (%). For the same compound, the “Headache (treatment-related adverse event, all grades)” value [3, 6] was 10 (38) N patients (%), the “Nausea (treatment-related adverse event, all grades)” value [3, 6] was 12 (46) N patients (%) and the “Vomiting (treatment-related adverse event, all grades)” value [3, 6] was 7 (27) N patients (%). The “Anemia (treatment-related adverse event, all grades)” value [3, 7] was 0 N patients (%), the “Anorexia (treatment-related adverse event, all grades)” value [3, 7] was 0 N patients (%) and the “Aspartate aminotransferase increased (treatment-related adverse event, all grades)” value (“Aspartate aminotransferase increased” below) [3, 7] was 0 N patients (%). For the same compound, the “Asthenia (treatment-related adverse event, all grades)” value [3, 7] was 0 N patients (%), the “Constipation (treatment-related adverse event, all grades)” value [3, 7] was 0 N patients (%) and the “Diarrhea (treatment-related adverse event, all grades)” value [3, 7] was 0 N patients (%). The “Dyspepsia (treatment-related adverse event, all grades)” value (from here on “Dyspepsia”) [3, 7] was 0 N patients (%), the “Fatigue (treatment-related adverse event, all grades)” value [3, 7] was 0 N patients (%) and the “Gamma-glutamyltransferase increased (treatment-related adverse event, all grades)” value (“Gamma-glutamyltransferase increased” below) [3, 7] was 0 N patients (%). The “Anemia (treatment-related adverse event, all grades)” value [3, 8] was 0 N patients (%), the “Anorexia (treatment-related adverse event, all grades)” value [3, 8] was 1 (17) N patients (%) and the “Aspartate aminotransferase increased” value [3, 8] was 0 N patients (%). For the same compound, the “Asthenia (treatment-related adverse event, all grades)” value [3, 8] was 0 N patients (%), the “Constipation (treatment-related adverse event, all grades)” value [3, 8] was 0 N patients (%) and the “Diarrhea (treatment-related adverse event, all grades)” value [3, 8] was 0 N patients (%). The “Dyspepsia” value [3, 8] was 0 N patients (%), the “Gamma-glutamyltransferase increased” value [3, 8] was 0 N patients (%) and the “Anemia (treatment-related adverse event, all grades)” value [3, 9] was 1 (33) N patients (%). The “Anorexia (treatment-related adverse event, all grades)” value [3, 9] was 0 N patients (%), the “Aspartate aminotransferase increased” value [3, 9] was 1 (33) N patients (%) and the “Asthenia (treatment-related adverse event, all grades)” value [3, 9] was 2 (67) N patients (%). For the same compound, the “Constipation (treatment-related adverse event, all grades)” value [3, 9] was 0 N patients (%), the “Diarrhea (treatment-related adverse event, all grades)” value [3, 9] was 0 N patients (%) and the “Dyspepsia” value [3, 9] was 0 N patients (%). For the same compound, the “Fatigue (treatment-related adverse event, all grades)” value [3, 9] was 0 N patients (%), the “Gamma-glutamyltransferase increased” value [3, 9] was 1 (33) N patients (%) and the “Anemia (treatment-related adverse event, all grades)” value [3, 10] was 1 (9) N patients (%). For the same compound, the “Anorexia (treatment-related adverse event, all grades)” value [3, 10] was 1 (9) N patients (%), the “Aspartate aminotransferase increased” value [3, 10] was 1 (9) N patients (%) and the “Asthenia (treatment-related adverse event, all grades)” value [3, 10] was 4 (36) N patients (%). The “Diarrhea (treatment-related adverse event, all grades)” value [3, 10] was 3 (27) N patients (%), the “Dyspepsia” value [3, 10] was 2 (18) N patients (%) and the “Fatigue (treatment-related adverse event, all grades)” value [3, 10] was 4 (36) N patients (%). For the same compound, the “Gamma-glutamyltransferase increased” value [3, 10] was 2 (18) N patients (%), the “Anemia (treatment-related adverse event, all grades)” value [3, 11] was 0 N patients (%) and the “Aspartate aminotransferase increased” value [3, 11] was 0 N patients (%). The “Asthenia (treatment-related adverse event, all grades)” value [3, 11] was 0 N patients (%), the “Constipation (treatment-related adverse event, all grades)” value [3, 11] was 1 (33) N patients (%) and the “Dyspepsia” value [3, 11] was 0 N patients (%). For the same compound, the “Fatigue (treatment-related adverse event, all grades)” value [3, 11] was 1 N patients (%), the “Gamma-glutamyltransferase increased” value [3, 11] was 0 N patients (%) and the “abdominal pain, adverse event” value ([3]; human, in vivo) was 35%. For the same compound, the “anemia, adverse event” value ([3]; human, in vivo) was 23%, the “anorexia, adverse event” value ([3]; human, in vivo) was 35% and the “asthenia, adverse event” value ([3]; human, in vivo) was 42%. For the same compound, the “constipation, adverse event” value ([3]; human, in vivo) was 50%, the “diarrhea, adverse event” value ([3]; human, in vivo) was 42% and the “fatigue, adverse event” value ([3]; human, in vivo) was 31%. The “grade 3–4 lymphopenia (laboratory)” value ([3]; human, in vivo) was 5 patients, the “headache, adverse event” value ([3]; human, in vivo) was 50% and the “nausea, adverse event” value ([3]; human, in vivo) was 77%. The “patients with treatment-related adverse events (TRAEs)” value ([3]; human, in vivo) was 24 (92 %) patients (%), the “recommended phase 2 dose” value ([3]; human, in vivo) was 750 mg/day and the “vomiting, adverse event” value ([3]; human, in vivo) was 65%. For the same compound, the “Abdominal pain (treatment-related adverse event, all grades)” value ([3]; human, in vivo, 14 day) was 2 (8) N patients (%), the “central review of ECGs” value ([3]; in vivo) was “no clinically significant abnormalities” and the “patients who withdrew due to adverse events” value ([3]; in vivo) was “Four patients”. The “patients with dose delays due to hematological toxicity” value ([3]; in vivo) was “three patients”, the “patients with grade 3–4 laboratory hematologic toxicities” value ([3]; in vivo) was “Six patients” and the “maximum tolerated dose (MTD)” value ([3]; with temozolomide 150 mg/m^2) was 750 mg/day. For the same compound, the Partial response (advanced solid tumors; [12]) was 0 patients, the Progressive disease (advanced solid tumors; [12]) was 2 patients and the Stable disease (advanced solid tumors; [12]) was 0 patients. For the same compound, the Partial response (advanced solid tumors; [13]) was 0 patients, the Progressive disease (advanced solid tumors; [13]) was 5 patients and the Stable disease (advanced solid tumors; [13]) was 1 patients. For the same compound, the Partial response (advanced solid tumors; [14]) was 0 patients, the Progressive disease (advanced solid tumors; [14]) was 1 patients and the Stable disease (advanced solid tumors; [14]) was 2 patients. The Partial response (advanced solid tumors; [15]) was 0 patients, the Progressive disease (advanced solid tumors; [15]) was 8 patients and the Stable disease (advanced solid tumors; [15]) was 1 patients. For the same compound, the Partial response (advanced solid tumors; [16]) was 1 patients, the Progressive disease (advanced solid tumors; [16]) was 1 patients and the Stable disease (advanced solid tumors; [16]) was 0 patients. The “reduction in target lesions (RECIST) in the patient with partial response” value (advanced solid tumors; melanoma patient, 1,000 mg/day with temozolomide) was 58%, the “duration of partial response” value (advanced solid tumors; melanoma patient, 1,000 mg/day with temozolomide, first observed after 6 cycles) was 5.8 months and the Progressive disease (advanced solid tumors; total, all cohorts, 22 evaluated) was 17 patients. The “conversion of CEP-9722 into its active form” value [4] was “rapid”, the “PAR concentrations in PBMCs relative to baseline” value ([5]; 2 and 6 h post-dose, cycle 1, without temozolomide) was “reduction in PAR concentrations relative to baseline was observed” and the “reduction in PAR concentrations in PBMCs” value ([5]; 6 h post-dose, cycle 2, with temozolomide) was “less marked”. For the same compound, the “inhibitory effects on PAR production” value ([5]; 24 h post-dose sample) was “lost”.
